Experimental findings from patent publication US5627194A, “Anti-viral guanidino-substituted compounds” (Allelix Biopharmaceuticals Inc., priority 1994, dated 1997) are described below.

pEC50, pIC50: −log10 of the molar value. Where only a bound is given, the exact number is not on record here.

Data set [1] has as its system herpesvirus. Description: Inhibition studies of herpesvirus replication by the compounds exemplified. The format is cell-based. The settings on record: summary table, read-out: ED50 (the source's name). How it is done: (§1) The following procedures were then used to determine inhibitory effects of the compound of example 1 on the replication of HSV-1, strain F. First, confluent monolayers of the African green monkey kidney cell line, Vero (ATCC 733-VR CCL 81) in 24 well cell culture plates were pretreated with specified concentrations (0 μM, 0.5 μM, 1 μM, 5 μM, 10 μM, 20 μM and 50 μM) of ALX-19 at 37° C., 5% CO2 for 24 hours. This was accomplished by diluting the stock solution of the test compound in growth medium (10% fetal bovine serum, 100 IU/ml penicillin, 100 μg/ml streptomycin and 0.02 mg/ml gentamicin in Dulbecco's MEM (DMEM)) used to overlay the monolayers.
(§2) After pretreatment with the test compound, the monolayers were overlaid with 0.1 ml of diluted virus stock at about 20 pfu/well. Virus was then allowed to absorb for 1 hours at 37° C. The virus inoculum was removed and the monolayers were overlaid with DMEM containing 2% FBS and the specified concentrations of the test compound. Virus was next allowed to replicate for 48 hours and then the monolayers were fixed and stained with a solution of 1% crystal violet in 70% ethanol:formalin:acetic acid (20:2:1). Finally, plaques (each representing a single infectious virus particule or plaque forming unit (PFU) were counted and checked microscopically. The results were as follows:
A procedure similar to that described in Example 3 was conducted to determine the anti-viral activity of the compound of example 2. In the case, however, the concentrations of the test compound used to pretreat the MRC-5 cells were 0 μM, 1 μM, 10 μM, 100 μM and 500 μM, respectively. The following results were obtain on infection and incubation of the treated cells:
The following table illustrates results obtained in inhibition and cytotoxicity studies of herpesvirus replication by the compounds exemplified.

In data set [2] the test system is herpes simplex virus. In words: Plaque reduction assay, inhibition of herpesvirus replication by the compound of example 2 (MRC-5 cells). The format is cell-based. The settings on record: for Plaque number: untreated 19.
From the text: (§3) The present invention provides novel di-guanidino-substituted compounds having anti-herpesvirus activity. The term "anti-herpesvirus" as used herein refers to those compounds which inhibit replication of a member of the herpesvirus family as determined by conventional cell culture assay, such as the well established plaque reduction assay. In the context of the plaque reduction assay, for example, the anti-herpesvirus nature of a compound in accordance with the present invention is indicated by a reduction in plaque count, or a reduction in plaque size, following treatment of virally infected cells with the given compound, relative to a virally infected, untreated control.
as §1, §2
A procedure similar to that described in Example 3 was conducted to determine the anti-viral activity of the compound of example 2. In the case, however, the concentrations of the test compound used to pretreat the MRC-5 cells were 0 μM, 1 μM, 10 μM, 100 μM and 500 μM, respectively. The following results were obtain on infection and incubation of the treated cells: […]

The test system of data set [3] is herpesvirus. Format: cell-based. How it is done:
The therapeutic index of this compound, i.e. the ratio of its cytotoxicity to its viral toxicity, was determined to be 12.29. The following table illustrates results obtained in inhibition and cytotoxicity studies of herpesvirus replication by the compounds exemplified.

Data set [4] relates to HSV-1, strain F. In words: Plaque reduction assay, inhibition of HSV-1 strain F replication by the compound of example 1 (Vero cells). Format: cell-based, herpes simplex virus type 1. Particulars: for Plaque number: Vero, 24 h pretreatment, 48 h, untreated 19.
From the text: as §3
The compound of example 1 was formulated as a 10 mM stock in water for in vitro and cell culture procedures. The stock was then diluted into buffers used for specific assays, or into cell culture media.
as §1
as §2, with “follows: […]” for “follows:”
Background: Plaque reduction counts the foci of infection that form in a cell layer.

For the compound `N=C(N)NCCCOC[C@H]1OC(OCCCNC(=N)N)CC[C@@H]1OCCCNC(=N)N` (stereo partly drawn) [Example 2, 1,4,6-tri-O-propylguanidine-2,3-dideoxy-hexoside], the pEC50 in data set [1] was 4.98; in data set [2] (MRC5, MRC-5 cells, plaque reduction, read-out: ED50 (the source's name)) it was 4.98. Besides, the Plaque number in data set [2] (0.5 μM, MRC-5 cells) is 18; in data set [2] (1 μM, MRC-5 cells) it was 16; in data set [2] (5 μM, MRC-5 cells) it was 11; in data set [2] (10 μM, MRC-5 cells), 9; in data set [2] (20 μM, MRC-5 cells) it was 6; in data set [2] (50 μM, MRC-5 cells) it was 5. In addition, the “reduction in the replication of herpes simplex virus” value in data set [2] (concentration of 1 μM or more) is on record as “significant reduction”. Also, in data set [3], the TI is over 50. Also, the “therapeutic index, ratio of cytotoxicity to viral toxicity” value in data set [3] is given as over 50.
As for `CC(C)OC1CC[C@H](OCCCCCNC(=N)N)[C@@H](COCCCCCNC(=N)N)O1` (stereo partly drawn) [Example 7, isopropyl-4,6-di-O-pentylguanidine-2,3-dideoxy-D-erythro-hexoside], the pEC50 in data set [1] was 5.19. The compound also had a TI in data set [3] of 5.17.
In the case of `CCOC1CC[C@H](OCCCNC(=N)N)[C@@H](COCCCNC(=N)N)O1` (stereo partly drawn) [Example 5, ethyl-4,6-di-O-propylguanidine-2,3-dideoxy-hexoside], the pEC50 in data set [1] is 5.60. Moreover, the TI in data set [3] was found to be 9.96.
Turning to `N=C(N)NCCCOC[C@H]1OC(OCCO)CC[C@@H]1OCCCNC(=N)N` (stereo partly drawn) [Example 10, hydroxyethyl-4,6-di-O-propylguanidine-2,3-dideoxy-hexoside], the pEC50 in data set [1] was 4.97. The TI in data set [3] worked out at 31.22.
Regarding `CCOCCOCCOC1CC[C@H](OCCCNC(=N)N)[C@@H](COCCCNC(=N)N)O1` (stereo partly drawn) [Example 8, (ethoxy-ethoxy-ethyl)-4,6-di-O-propylguanidine-2,3-dideoxy-d-erythrohexoside], the pEC50 in data set [1] is 5.00. For the same compound, in data set [3], the TI is over 20.
For `CCOC1CC[C@H](OCCCCCNC(=N)N)[C@@H](COCCCCCNC(=N)N)O1` (stereo partly drawn) [Example 6, ethyl-4,6-di-O-pentylguanidine-2,3-dideoxy-hexoside], the pEC50 in data set [1] was 5.03. In data set [3], this compound displayed a TI of 17.28.
Regarding `COC1CC[C@H](OCCCNC(=N)N)[C@@H](COCCCNC(=N)N)O1` (stereo partly drawn) [Example 1, Methyl-4,6-di-O-propylguanidine-2,3-dideoxy-α,β-D-erythro-hexoside], the pEC50 in data set [1] was 5.59. For the same compound, the TI in data set [3] came out at 12.29. Further, the “therapeutic index, ratio of cytotoxicity to viral toxicity” value in data set [3] was found to be 12.29. The Plaque number in data set [4] (0.5 μM, HSV-1 strain F) is on record as 18; in data set [4] (1 μM, HSV-1 strain F) it was 16; in data set [4] (5 μM, HSV-1 strain F) it was 6; in data set [4] (10 μM, HSV-1 strain F) it was 4; in data set [4] (20 μM, HSV-1 strain F), 1. Also, in data set [4] (Human alphaherpesvirus 1, HSV-1 strain F, Vero cells, plaque reduction), the negative-log IC50 (pIC50) was 5.59. Moreover, the “reduction in the replication of herpes simplex virus” value in data set [4] (concentration of more than 1 μM) is reported as “significant reduction”.
As for `N=C(N)NCCCOC[C@H]1OCCC[C@@H]1OCCCNC(=N)N` [Example 9, 4,6-di-O-propylguanidine-3-deoxy dihydro-D-glucal], in data set [1], the pEC50 was about 4.30. Also, the TI in data set [3] is recorded as ~ 350.

What is called pIC50 is the negative decadic logarithm of the IC50, by convention in mol/L. Low values mean a high IC50, high ones a low IC50.
